Eight compounds from ChEMBL document CHEMBL4130427, “Synthesis and evaluation of asymmetric curcuminoid analogs as potential anticancer agents that downregulate NF-κB activation and enhance the sensitivity of gastric cancer cell lines to irinotecan chemotherapy” (Eur J Med Chem, 2017) can be followed below.

Structures are written as SMILES. pIC50: −log10 of the molar value. Activity calls are given as the source filed them. No cut-off for these calls is given here.

For assay [1], the system named is SGC-7901. Put plainly: Growth inhibition of human SGC7901 cells at 20 uM after 72 hrs by MTT assay. The assay is classed as functional, cell-based.
Assay [2] relates to SGC-7901. Put plainly: Potency index, ratio of compound effect to curcumin effect for growth inhibition of human SGC7901 cells. The assay is classed as functional.
Assay [3] has as its system BGC-823. As to the kind of experiment: Growth inhibition of human BGC823 cells at 20 uM after 72 hrs by MTT assay. The assay is classed as functional, cell-based. Background: Tetrazolium assays rely on reduction of a dye to a coloured formazan, in cell work by metabolically active cells.
The subject of assay [4] is BGC-823. Put plainly: Potency index, ratio of compound effect to curcumin effect for growth inhibition of human BGC823 cells. It is filed as functional.
For a further assay, the species on record is Mus musculus. As to the kind of experiment: Growth inhibition of MFC cells at 20 uM after 72 hrs by MTT assay. It is filed as functional.
In assay [5] the test system is BGC-823. As to the kind of experiment: Growth inhibition of human BGC823 cells after 72 hrs by MTT assay. Conditions: BGC-823, 72 h. It is filed as functional, cell-based.
Assay [6] concerns SGC-7901. Put plainly: Growth inhibition of human SGC7901 cells after 72 hrs by MTT assay. The assay is classed as functional, cell-based. Conditions: SGC-7901, 72 h.
Assay [7] has as its system BGC-823. As to the kind of experiment: Inhibition of colony formation in human BGC823 cells treated for 12 hrs followed by incubation in drug free medium for 14 days by crystal violet staining based assay. The assay is classed as functional, cell-based.
Assay [8] deals with SGC-7901. As to the kind of experiment: Inhibition of colony formation in human SGC7901 cells treated for 12 hrs followed by incubation in drug free medium for 14 days by crystal violet staining based assay. The assay is classed as functional, cell-based.
Assay [9] has as its system BGC-823. As to the kind of experiment: Induction of apoptosis in human BGC823 cells assessed as downregulation of bcl2 protein expression at 2.5 to 5 uM after 48 hrs by Western blot method. It is filed as functional, cell-based. (In general: In western blotting, separated proteins are transferred to a membrane and probed.)
The subject of assay [10] is SGC-7901. As to the kind of experiment: Induction of apoptosis in human SGC7901 cells assessed as downregulation of bcl2 protein expression at 2.5 to 5 uM after 48 hrs by Western blot method. It is filed as functional, cell-based.
Assay [11] relates to BGC-823. Put plainly: Induction of apoptosis in human BGC823 cells assessed as upegulation of cleaved PARP protein expression at 2.5 to 5 uM after 48 hrs by Western blot method. The assay is classed as functional, cell-based.
Assay [12] relates to SGC-7901. Put plainly: Induction of apoptosis in human SGC7901 cells assessed as upegulation of cleaved PARP protein expression at 2.5 to 5 uM after 48 hrs by Western blot method. It is filed as functional, cell-based.
Assay [13] relates to BGC-823. As to the kind of experiment: Induction of apoptosis in human BGC823 cells assessed as upegulation of cleaved caspase-3 protein expression at 2.5 to 5 uM after 48 hrs by Western blot method. It is filed as functional, cell-based.
Assay [14] concerns SGC-7901. As to the kind of experiment: Induction of apoptosis in human SGC7901 cells assessed as upegulation of cleaved caspase-3 protein expression at 2.5 to 5 uM after 48 hrs by Western blot method. The assay is classed as functional, cell-based.
In assay [15] the test system is BGC-823. As to the kind of experiment: Induction of apoptosis in human BGC823 cells assessed as upegulation of Bax protein expression at 2.5 to 5 uM after 48 hrs by Western blot method. It is filed as functional, cell-based.
In assay [16] the test system is SGC-7901. As to the kind of experiment: Induction of apoptosis in human SGC7901 cells assessed as upegulation of Bax protein expression at 2.5 to 5 uM after 48 hrs by Western blot method. It is filed as functional, cell-based.
Assay [17] concerns SGC-7901. As to the kind of experiment: Induction of apoptosis in human SGC7901 cells assessed as apoptotic nuclei formation at 2.5 to 5 uM after 24 hrs by Hoechst 33258 staining based fluorescence microscopic method. It is filed as functional, cell-based.
Assay [18] is filed under the species Homo sapiens. Put plainly: Inhibition of NFkappaB activation in human BGC823 cells assessed as reduction in TNFalpha-induced IkBalpha degradation at 1 to 5 uM preincubated for 2 hrs followed by TNFalpha addition measured after 30 mins by Western blot method. It is filed as cell-based.
For assay [19], the species on record is Homo sapiens. As to the kind of experiment: Inhibition of NFkappaB activation in human SGC7901 cells assessed as reduction in TNFalpha-induced IkBalpha degradation at 1 to 5 uM preincubated for 2 hrs followed by TNFalpha addition measured after 30 mins by Western blot method. The assay is classed as cell-based.
For assay [20], the species on record is Homo sapiens. As to the kind of experiment: Inhibition of NFkappaB activation in human BGC823 cells assessed as potentiation of irrinotecan-induced cell growth inhibition at 1 uM after 48 hrs by inverted microscopic method relative to (3E,5E)-3-(2,3-dimethoxybenzylidene)-5-(4-hydroxy-3-methoxybenzylidene)dihydro-2H-pyran-4(3H)-one alone. It is filed as cell-based.

The species entered for assay [21] is Homo sapiens. As to the kind of experiment: Inhibition of NFkappaB activation in human BGC823 cells assessed as potentiation of irrinotecan-induced cell growth inhibition at 1 uM after 48 hrs by inverted microscopic method relative to irrinotecan alone. The assay is classed as cell-based.
Assay [22] is filed under the species Homo sapiens. Put plainly: Inhibition of NFkappaB activation in human BGC823 cells assessed as potentiation of irrinotecan-induced cell growth inhibition at 1 uM after 72 hrs by MTT method relative to (3E,5E)-3-(2,3-dimethoxybenzylidene)-5-(4-hydroxy-3-methoxybenzylidene)dihydro-2H-pyran-4(3H)-one alone. The assay is classed as cell-based.
The species named for assay [23] is Homo sapiens. Put plainly: Inhibition of NFkappaB activation in human BGC823 cells assessed as potentiation of irrinotecan-induced cell growth inhibition at 1 uM after 72 hrs by MTT method relative to irrinotecan alone. The assay is classed as cell-based.
Assay [24] is filed under the species Homo sapiens. As to the kind of experiment: Inhibition of NFkappaB activation in human BGC823 cells assessed as potentiation of irrinotecan-induced decrease in survival cell count at 1 uM after 48 hrs by cell analyzer method. The assay is classed as cell-based.
The species entered for assay [25] is Homo sapiens. Put plainly: Inhibition of NFkappaB activation in human BGC823 cells assessed as potentiation of irrinotecan-induced decrease in colony formation at 1 uM preincubated for 12 hrs followed by incubation in drug free medium for 11 days by crystal violet staining based assay. It is filed as cell-based.
The test system of assay [26] is BGC-823. As to the kind of experiment: Inhibition of colony formation in human BGC823 cells at 5 uM treated for 12 hrs followed by incubation in drug free medium for 14 days by crystal violet staining based assay. It is filed as functional, cell-based.
In assay [27] the test system is SGC-7901. Put plainly: Inhibition of colony formation in human SGC7901 cells at 5 uM treated for 12 hrs followed by incubation in drug free medium for 14 days by crystal violet staining based assay. It is filed as functional, cell-based.

On to `COc1ccc(/C=C2\COC/C(=C\c3ccc(O)c(OC)c3)C2=O)c(OC)c1`, for which the “growth inhibition (GI)” value in the assay on SGC-7901 [1] is “Active”. Moreover, the Ratio in the assay with SGC-7901 [2] is on record as more than 2.
With `COc1ccc(/C=C2\COC/C(=C\c3ccc(O)c(OC)c3)C2=O)cc1O`, the “growth inhibition (GI)” value in the assay on BGC-823 [3], in the assay with SGC-7901 [1] and in the assay listed under Mus musculus was “Active” each time. Further, the Ratio with BGC-823 [4] is recorded as more than 10; in the assay on SGC-7901 [2], more than 2.
As to `COc1ccc(/C=C2\COC/C(=C\c3ccc(O)c(OC)c3)C2=O)c(C(F)(F)F)c1`, the “growth inhibition (GI)” value in the assay on BGC-823 [3] and in the assay with SGC-7901 [1] was “Active” throughout. Besides, the figures for the Ratio with BGC-823 [4] and in the assay on SGC-7901 [2] were more than 10 and more than 2, respectively.
As for `COc1cc(/C=C2\COC/C(=C\c3cccc(OC)c3OC)C2=O)ccc1O`, the “growth inhibition (GI)” value with BGC-823 [3], with SGC-7901 [1] and in the assay listed under Mus musculus was “Active” each time. Moreover, the Ratio with BGC-823 [4] is listed as more than 10; in the assay with SGC-7901 [2], more than 2. For the same compound, the pIC50 – broadly, the IC50 on a negative log10 scale, so that one unit is a factor of ten – is 5.46 in the assay on BGC-823 [5] and 5.80 with SGC-7901 [6]. Also, the inhibition result with BGC-823 [7], in the assay on SGC-7901 [8], in the assay listed under Homo sapiens [18] and in the assay filed under Homo sapiens [19] was “Dose-dependent effect” each time. Further, the outcome with BGC-823 [9], in the assay on SGC-7901 [10], in the assay with BGC-823 [11], in the assay on SGC-7901 [12], in the assay with BGC-823 [13] and in the assay on SGC-7901 [14] was Active. Also, the result in the assay on BGC-823 [15], in the assay with SGC-7901 [16] and with SGC-7901 [17] was Active. Also, the fold change (FC) in the assay filed under Homo sapiens [20] is 3; in the assay listed under Homo sapiens [21] it was 2; in the assay listed under Homo sapiens [22] it was 2.5; in the assay listed under Homo sapiens [23], 10. The inhibition entry in the assay filed under Homo sapiens [24] and in the assay listed under Homo sapiens [25] was “Active” in each case.
Take `COc1ccc(OC)c(/C=C2\COC/C(=C\c3ccc(O)c(OC)c3)C2=O)c1`: the “growth inhibition (GI)” value with BGC-823 [3], with SGC-7901 [1] and in the assay listed under Mus musculus was “Active” throughout. Besides, the Ratio is more than 10 in the assay on BGC-823 [4] and more than 2 in the assay with SGC-7901 [2].
Turning to `Cc1ccc2nc(NCCN)c3ncc(C)n3c2c1`, the “growth inhibition (GI)” value in the assay on BGC-823 [3], in the assay on SGC-7901 [1] and in the assay filed under Mus musculus was “Active” in each case.
As for `Cc1ccc(S(=O)(=O)/C=C/C#N)cc1`, the inhibition result in the assay with BGC-823 [26] and in the assay with SGC-7901 [27] was “Active” throughout.
For `COc1cc(/C=C/C(=O)CC(=O)/C=C/c2ccc(O)c(OC)c2)ccc1O`, the “growth inhibition (GI)” value with BGC-823 [3], in the assay with SGC-7901 [1] and in the assay listed under Mus musculus was “Active” each time.
